# Measured values from patent US8993612B2, “Modulators of calcium release-activated calcium channel and methods for treatment of non-small cell lung cancer” (Rhizen Pharmaceuticals SA, priority 2009, dated 2015).
# Counter-ions that a name gives are not always drawn.
# Assays:
# CRAC channels = CRAC channels (Homo sapiens (Human), UniProt Q96D31); assay: In-vitro CRAC channel inhibition assay in Jurkat cells (thapsigargin-induced calcium influx); type: cell-based
# Experimental: Inhibition of CRAC channels was determined following thapsigargin (Sigma, Cat # T9033) induced endoplasmic calcium release in Jurkat cells. (see Yasurio Yonetoky et. al Bio. & Med. Chem. 14 (2006) 4750-4760). Cells were centrifuged and resuspended in equal volumes ° f Ca^2+ and Mg^2+ free Hanks buffer and Fluo-8 NW dye (ABD Bioquest, Inc., Sunnyvale, Calif.) loading solution at 2×10^5 cells/100 μl/well in 96-well black plate. Plate is incubated at 37° C./5% CO2 for 30 mM followed by further 15 mM incubation at room temperature. Test compounds (DMSO stocks diluted in Ca^2+ and Mg^2+ free Hanks buffer) at desired concentrations were added to the wells and incubated for […]. Thapsigargin (1 μM final concentration) was added to the wells and incubated for 15 min to inhibit the Sarco-endoplasmic reticulum Ca^2+ ATPase pump thereby depleting endoplasmic calcium and raising cytosolic calcium concentrations. Store-operated calcium entry was initiated by adding extracellular Ca^2+ to a final concentration of 1.8 mM. Fluorescence was monitored over […] on a plate reader (BMG Labtech., Germany) with excitation at 485 nm and an emission wavelength at 520 nm. Data were analyzed using GraphPad Prism. IC50 for each compound was determined based on the percent inhibition of thapsigargin-induced calcium influx into cells.
# NCI-H460 cells = assay: In-vitro cell proliferation assay in NCI-H460 cancer cell line (MTT); type: cell-based, human; settings: Homo sapiens; for inhibition at 10 µM: NCI-H460, 10 μM, 48 h; for IC50: NCI-H460, 48 h, read-out: NCI-H460 Cell line assay G1 50 nM
# Experimental: Growth inhibition assays were carried out using 10% FBS supplemented media. Cells were seeded at a concentration of 5000 cells/well in a 96-well plate. Test compound at a concentration range from 0.01 to 10000 nM were added after 24 h. Growth was assessed using the 3-[4,5-dimethylthiazol-2-yl]-2,5-diphenyltetrazolium bromide (MTT) dye reduction test at 0 h (prior to the addition of the test compound) and 48 h after the addition of test compound. Absorbance was read on a Fluostar Optima (BMG Labtech, Germany) at a wave length of 450 nm. Data were analysed using GraphPad Prism. IC-50 for each compound was determined based on the % inhibition due to the test compound compared to the control.
# For methods of cell proliferation assay, see, for example, Mosmann. T., Journal of Immunological Methods, 65(1-2), 55-63, (1983).
# The effect of CRAC and/or STIM protein on the proliferation and viability of lung cancer cells was determined as follows.
# For Methodology Refer 1C.
# CRAC channels, sequence (Q96D31 whole entry): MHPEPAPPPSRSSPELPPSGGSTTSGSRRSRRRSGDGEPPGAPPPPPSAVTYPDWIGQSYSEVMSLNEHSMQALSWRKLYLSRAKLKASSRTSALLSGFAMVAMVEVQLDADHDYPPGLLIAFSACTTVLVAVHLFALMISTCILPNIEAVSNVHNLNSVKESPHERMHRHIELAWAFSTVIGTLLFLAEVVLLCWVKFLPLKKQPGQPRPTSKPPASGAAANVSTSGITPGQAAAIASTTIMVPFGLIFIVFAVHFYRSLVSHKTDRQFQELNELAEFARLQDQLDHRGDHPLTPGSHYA
SMILES,inhibition at 1 µM (CRAC channels; 1 uM) [%],further results
"O=C(Nc1ccc(-n2nc(C3CC3)cc2C2CC2)nc1)c1ccc2nccnc2c1 [Example 14, N-[6-(3,5-dicyclopropyl-1H-pyrazol-1-yl)pyridin-3-yl]quinoxaline-6-carboxamide]",17.8,–
"O=C(Nc1ccc(-n2nc(C3CC3)cc2C2CC2)cc1)c1ccc2nc[nH]c2c1 [Example 1, N-[4-(3,5-dicyclopropyl-1H-pyrazol-1-yl)phenyl]-1H-benzo[d]imidazole-6-carboxamide]",57.6,–
"O=C(Cc1c[nH]c2ccccc12)Nc1ccc(-n2nc(C3CC3)cc2C2CC2)cc1 [Example 7, N-[4-(3,5-dicyclopropyl-1H-pyrazol-1-yl)phenyl]-2-(1H-indol-3-yl)acetamide]",36.8,–
"O=C(Nc1ccc(-n2nc(C3CC3)cc2C2CC2)nc1)c1ccc2ncccc2c1 [Example 13, N-[6-(3,5-dicyclopropyl-1H-pyrazol-1-yl)pyridin-3-yl]quinoline-6-carboxamide Dihydrochloride]",22.4,–
"Cl.Cl.O=C(Cc1ccc2ncccc2c1)Nc1ccc(-n2nc(C3CC3)cc2C2CC2)nc1 [Example 16, N-[6-(3,5-dicyclopropyl-1H-pyrazol-1-yl)pyridin-3-yl]-2-(quinolin-6-yl)acetamidedihydrochloride]",–,% inhibition (1 uM) (CRAC channels; 1 uM): 30.81%
"O=C(Cc1ccc2ncccc2c1)Nc1ccc(-n2nc(C3CC3)cc2C2CC2)c(F)c1 [Example 12, N-[4-(3,5-dicyclopropyl-1H-pyrazol-1-yl)-3-fluorophenyl]-2-(quinolin-6-yl)acetamide Hydrochloride]",100,inhibition at 10 µM (NCI-H460 cells): 90%; IC50 (NCI-H460 cells): 100 nM; IC50 (CRAC channels): 263 nM
"O=C(Cn1nc2ccccc2n1)Nc1ccc(-n2nc(C(F)(F)F)cc2C2CC2)cc1 [Example 21, 2-(2H-benzo[d][1,2,3]triazol-2-yl)-N-{4-[5-cyclopropyl-3-(trifluoromethyl)-1H-pyrazol-1-yl]phenyl}acetamide]",83,IC50 (CRAC channels): 139 nM
"O=C(Cn1nnc2ccccc21)Nc1ccc(-n2nc(C3CC3)cc2C2CC2)nc1 [Example 15, 2-(1H-benzo[d][1,2,3]triazol-1-yl)-N-[6-(3,5-dicyclopropyl-1H-pyrazol-1-yl)pyridin-3-yl]acetamide]",3.93,–
"O=C(Cn1nnc2ccccc21)Nc1ccc(-n2nc(C3CC3)cc2C2CC2)c(F)c1 [Example 11, 2-(1H-benzo[d][1,2,3]triazol-1-yl)-N-(4-(3,5-dicyclopropyl-1H-pyrazol-1-yl)-3-fluorophenyl)acetamide]",78.6,–
"O=C(Nc1ccc(-n2nc(C(F)(F)F)cc2C2CC2)cc1)c1ccc2nccnc2c1 [Example 18, N-{4-[5-cyclopropyl-3-(trifluoromethyl)-1H-pyrazol-1-yl]phenyl}quinoxaline-6-carboxamide]",96.6,IC50 (CRAC channels): 53.4 nM
"O=C(Cc1cn2ccccc2n1)Nc1ccc(-n2nc(C3CC3)cc2C2CC2)cc1 [Example 8, N-[4-(3,5-dicyclopropyl-1H-pyrazol-1-yl)phenyl]-2-(imidazo[1,2-a]pyridin-2-yl)acetamide Hydrochloride]",17.9,–

# Continued, in another order:
inhibition at 1 µM (CRAC channels; 1 uM) [%],SMILES,further results
15,"O=C(Cn1nnc2ccccc21)Nc1ccc(-n2nc(C(F)(F)F)c(Cl)c2C2CC2)nc1 [Example 35, 2-(1H-benzo[d][1,2,3]triazol-1-yl)-N-{6-[4-chloro-5-cyclopropyl-3-(trifluoromethyl)-1H-pyrazol-1-yl]pyridin-3-yl}acetamide]",–
51.2,"O=C(Cc1ccc2ncccc2c1)Nc1ccc(-n2nc(C(F)(F)F)cc2C2CC2)nc1 [Example 34, N-{6-[5-cyclopropyl-3-(trifluoromethyl)-1H-pyrazol-1-yl]pyridin-3-yl}-2-(quinolin-6-yl)acetamide hydrochloride]",inhibition at 10 µM (NCI-H460 cells): 82.7%; IC50 (NCI-H460 cells): 628 nM
50.6,"O=C(Nc1ccc(-n2nc(C(F)(F)F)cc2C2CC2)nc1)c1ccc2[nH]nnc2c1 [Example 31, N-{6-[5-cyclopropyl-3-(trifluoromethyl)-1H-pyrazol-1-yl]pyridin-3-yl}-1H-benzo[d][1,2,3]triazole-5-carboxamide]",–
41.2,"O=C(Cn1nnc2ccccc21)Nc1ccc(-n2nc(C(F)(F)F)cc2C2CC2)nc1 [Example 32, 2-(1H-benzo[d][1,2,3]triazol-1-yl)-N-{6-[5-cyclopropyl-3-(trifluoromethyl)-1H-pyrazol-1-yl]pyridin-3-yl}acetamide]",–
39.1,"Cn1c(=O)c2c(ncn2CC(=O)Nc2ccc(-n3nc(C(F)(F)F)cc3C3CC3)cc2)n(C)c1=O [Example 25, N-(4-(5-cyclopropyl-3-(trifluoromethyl)-1H-pyrazol-1-yl)phenyl)-2-(1,3-dimethyl-2,6-dioxo-2,3-dihydro-1H-purin-7(6H)-yl)acetamide]",–
14.8,"Nc1ncnc2c1ncn2CC(=O)Nc1ccc(-n2nc(C(F)(F)F)cc2C2CC2)cc1 [Example 24, 2-(6-amino-9H-purin-9-yl)-N-{4-[5-cyclopropyl-3-(trifluoromethyl)-1H-pyrazol-1-yl]phenyl}acetamide]",inhibition at 10 µM (NCI-H460 cells): 84.4%
57.3,"O=C(Nc1ccc(-n2nc(C3CC3)cc2C2CC2)cc1)Nc1ccc2ncccc2c1 [Example 37, 1-[4-(3,5-dicyclopropyl-1H-pyrazol-1-yl)phenyl]-3-(quinolin-6-yl)urea]",–
49.5,"O=C(Cn1nc2ccccc2n1)Nc1ccc(-n2nc(C(F)(F)F)cc2C2CC2)nc1 [Example 33, 2-(2H-benzo[d][1,2,3]triazol-2-yl)-N-{6-[5-cyclopropyl-3-(trifluoromethyl)-1H-pyrazol-1-yl]pyridin-3-yl}acetamide]",–
81.1,"O=C(Nc1ccc(-n2nc(C(F)(F)F)cc2C2CC2)c(F)c1)c1ccc2nn[nH]c2c1 [Example 29, N-{4-[5-cyclopropyl-3-(trifluoromethyl)-1H-pyrazol-1-yl]-3-fluorophenyl}-1H-benzo[d][1,2,3]triazole-6-carboxamide]",inhibition at 10 µM (NCI-H460 cells): 100%; IC50 (NCI-H460 cells): 1520 nM
69.9,"C[C@@H](C(=O)Nc1ccc(-n2nc(C(F)(F)F)cc2C2CC2)cc1)n1nnc2cccnc21 [Example 23, (S)-2-(3H-[1,2,3]triazolo[4,5-b]pyridin-3-yl)-N-{4-[5-cyclopropyl-3-(trifluoromethyl)-1H-pyrazol-1-yl]phenyl}propanamide]",–
100,"O=C(Cn1nnc2ccccc21)Nc1ccc(-n2nc(C(F)(F)F)cc2C2CC2)c(F)c1 [Example 30, 2-(1H-benzo[d][1,2,3]triazol-1-yl)-N-{4-[5-cyclopropyl-3-(trifluoromethyl)-1H-pyrazol-1-yl]-3-fluorophenyl}acetamide]",IC50 (CRAC channels): 160 nM
0,"CC(C(=O)Nc1ccc(-n2nc(C(F)(F)F)cc2C2CC2)cc1)c1ccc2ncccc2c1 (stereo not shown) [Example 28, N-{4-[5-cyclopropyl-3-(trifluoromethyl)-1H-pyrazol-1-yl]phenyl}-2-(quinolin-6-yl)propanamide Hydrochloride]",–
30.9,"O=C(Cn1nnc2cccnc21)Nc1ccc(-n2nc(C(F)(F)F)cc2C2CC2)cc1 [Example 22, 2-(3H-[1,2,3]triazolo[4,5-b]pyridin-3-yl)-N-{4-[5-cyclopropyl-3-(trifluoromethyl)-1H-pyrazol-1-yl]phenyl}acetamide]",–
30.9,"O=C(Cc1cn2ccccc2n1)Nc1ccc(-n2nc(C(F)(F)F)cc2C2CC2)cc1 [Example 26, N-{4-[5-cyclopropyl-3-(trifluoromethyl)-1H-pyrazol-1-yl)phenyl)-2-(imidazo[1,2-a]pyridin-2-yl)acetamide Hydrochloride]",–
51,"O=C(NCc1ccc2ncccc2c1)c1ccc(-n2nc(C(F)(F)F)cc2C2CC2)c(F)c1 [Example 36, 4-[5-cyclopropyl-3-(trifluoromethyl)-1H-pyrazol-1-yl]-3-fluoro-N-(quinolin-6-ylmethyl)benzamide hydrochloride]",–
